In patent US7199131B2, “Sulfonamide and sulfamide substituted imidazoquinolines” (3M Innovative Properties Company, priority 2001, dated 2007):
Structures can show the parent of a compound that is named as a salt.

What was measured:
[1] = test system: tumor necrosis factor (α); assay: Cytokine Induction in Human Cells: tumor necrosis factor (α) secreted by PBMCs, ELISA; format: cell-based; settings: incubated 18 to 24 hours, lowest concentration found to induce tumor necrosis factor
Description: (§1) An in vitro human blood cell system was used to assess cytokine induction by compounds of the invention. Activity is based on the measurement of interferon and tumor necrosis factor (α) (IFN and TNF, respectively) secreted into culture media as described by Testerman et. al. In “Cytokine Induction by the Immunomodulators Imiquimod and S-27609”, Journal of Leukocyte Biology, 58, 365–372 (September, 1995).
(§2) Whole blood is collected by venipuncture into EDTA vacutainer tubes from healthy human donors. Peripheral blood mononuclear cells (PBMCs) are separated from whole blood by density gradient centrifugation using Histopaque®-1077 (Sigma Chemicals, St. Louis, Mo.). The PBMCs are suspended at 3–4×10^6 cells/mL in RPMI 1640 medium containing 10% fetal bovine serum, 2 mM L-glutamine and 1% penicillin/streptomycin solution (RPMI complete). The PBMC suspension is added to 48 well flat bottom sterile tissue culture plates (Costar, Cambridge, Mass. or Becton Dickinson Labware, Lincoln Park, N.J.) containing an equal volume of RPMI complete media containing test compound.
(§3) The compounds are solubilized in dimethyl sulfoxide (DMSO). The DMSO concentration should not exceed a final concentration of 1% for addition to the culture wells.
(§4) The solution of test compound is added at 60 μM to the first well containing RPMI complete and serial (three fold or ten fold) dilutions are made. The PBMC suspension is then added to the wells in an equal volume, bringing the test compound concentrations to the desired range. The final concentration of PBMC suspension is 1.5–2×10^6 cells/mL. The plates are covered with sterile plastic lids, mixed gently and then incubated for 18 to 24 hours at 37° C. in a 5% carbon dioxide atmosphere.
(§5) Following incubation the plates are centrifuged for 5–10 minutes at 1000 rpm (˜200×g) at 4° C. The cell culture supernatant is removed with a sterile polypropylene pipette and transferred to sterile polypropylene tubes. Samples are maintained at −30 to −70° C. until analysis. The samples are analyzed for interferon (α) and tumor necrosis factor (α) by ELISA
Tumor necrosis factor (α) (TNF) concentration is determined using ELISA kits available from Genzyme, Cambridge, Mass.; R&D Systems, Minneapolis, Minn.; or Pharmingen, San Diego, Calif.
(§6) The table below lists the lowest concentration found to induce interferon and the lowest concentration found to induce tumor necrosis factor for each compound.

interferon (α) = assay: Cytokine Induction in Human Cells: interferon (α) secreted by PBMCs, ELISA; format: cell-based; settings: incubated 18 to 24 hours, lowest concentration found to induce interferon
Description: as §1, §2, §3, §4, §5
Interferon (α) concentration is determined by ELISA using a Human Multi-Species kit from PBL Biomedical Laboratories, New Brunswick, N.J.
as §6

| SMILES | melting point | other results |
| --- | --- | --- |
| Cc1nc2c(N)nc3c(c2n1CCCCNS(C)(=O)=O)CCCC3 (as salt: hydrochloride) [Example 263, N-[4-(4-amino-2-methyl-6,7,8,9-tetrahydro-1H-imidazo[4,5-c]quinolin-1-yl)butyl]methanesulfonamide hydrochloride] | > 250 °C |  |
| CCCCc1nc2c(N)nc3ccccc3c2n1CCCCNS(=O)(=O)c1cccc2c(N(C)C)cccc12 [Example 1, N^1-[4-(4-Amino-2-butyl-1H-imidazo[4,5-c]quinolin-1-yl)butyl]-5-(dimethylamino)-1-naphthalenesulfonamide] | 223 to 224 °C |  |
| CCCCc1nc2c(N)nc3ccccc3c2n1CCCCNS(=O)(=O)c1cccc([N+](=O)[O-])c1 [Example 7, N^1-[4-(4-Amino-2-butyl-1H-imidazo[4,5-c]quinolin-1-yl)butyl]-3-nitro-1-benzenesulfonamide Hydrochloride] |  | Lowest Effective Concentration (μM) Tumor Necrosis Factor ([1]; Hydrochloride): ** (no induction was seen at any of the tested concentrations (0.12, 0.37, 1.11, 3.33, 10 and 30 μM)); minimal effective concentration (interferon (α); Hydrochloride): 0.01 µM |
| CCCCc1nc2c(N)nc3ccccc3c2n1CCCCNS(=O)(=O)c1ccc([N+](=O)[O-])cc1 [Example 9, N^1-[4-(4-Amino-2-butyl-1H-imidazo[4,5-c]quinolin-1-yl)butyl]-4-nitro-1-benzenesulfonamide Hydrochloride] |  | Lowest Effective Concentration (μM) Tumor Necrosis Factor ([1]; Hydrochloride): ** (no induction was seen at any of the tested concentrations (0.12, 0.37, 1.11, 3.33, 10 and 30 μM)); minimal effective concentration (interferon (α); Hydrochloride): 0.04 µM |
| CCCCc1nc2c(N)nc3ccccc3c2n1CCCCNS(=O)(=O)c1cccc2cnccc12 [Example 11, N^5-[4-(4-Amino-2-butyl-1H-imidazo[4,5-c]quinolin-1-yl)butyl]-5-isoquinolinesulfonamide] | 96 °C (dec.) |  |
| COCCc1nc2c(N)nc3c(c2n1CCCCNS(=O)(=O)c1ccc(F)cc1)CCCC3 [Example 14, N^1-{4-[4-Amino-2-(2-methoxyethyl)-6,7,8,9-tetrahydro-1H-imidazo[4,5-c]quinolin-1-yl]butyl}-4-fluoro-1-benzenesulfonamide] | 191 to 193 °C |  |
| Nc1nc2ccccc2c2c1nc(-c1ccccc1)n2CCCCNS(=O)(=O)c1ccc(F)cc1 [Example 15, N-[4-(4-Amino-2-phenyl-1H-imidazo[4,5-c]quinolin-1-yl)butyl]-4-fluoro-1-benzenesulfonamide] | 214 to 216 °C |  |
| CCCCc1nc2c(N)nc3ccccc3c2n1CCNS(C)(=O)=O [Example 34, N-[2-(4-Amino-2-butyl-1H-imidazo[4,5-c]quinolin-1-yl)ethyl]methanesulfonamide Trifluoroacetate] |  | minimal effective concentration [1]: 0.37 µM; minimal effective concentration (interferon (α)): 0.04 µM |
| CCCCc1nc2c(N)nc3ccccc3c2n1CCNS(=O)(=O)C(F)(F)F [Example 35, N-[2-(4-Amino-2-butyl-1H-imidazo[4,5-c]quinolin-1-yl)ethyl]trifluoromethanesulfonamide Trifluoroacetate] |  | minimal effective concentration [1]: 10 µM; minimal effective concentration (interferon (α)): 1.11 µM |
| CS(=O)(=O)NCCCCn1cnc2c(N)nc3c(c21)CCCC3 [Example 72, N-[4-(4-Amino-6,7,8,9-tetrahydro-1H-imidazo[4,5-c]quinolin-1-yl)butyl]methanesulfonamide Trifluoroacetate] |  | Lowest Effective Concentration (μM) Tumor Necrosis Factor [1]: ** (no induction was seen at any of the tested concentrations (0.12, 0.37, 1.11, 3.33, 10 and 30 μM)); minimal effective concentration (interferon (α)): 3.33 µM |
| CCCCc1nc2c(N)nc3ccccc3c2n1CCCCNS(=O)(=O)C[C@@]12CC[C@@H](CC1=O)C2(C)C [Example 89] |  | minimal effective concentration ([1]; PBMC): 1 µM; minimal effective concentration (interferon (α); PBMC): 0.001 µM |
| COCCc1nc2c(N)nc3c(c2n1CCCCNS(C)(=O)=O)CCCC3 [Example 214, N-[4-(4-Amino-6,7,8,9-tetrahydro-2-(2-methoxyethyl)-1H-imidazo[4,5-c]quinolin-1-yl)butyl]methanesulfonamide Trifluoroacetate] |  | minimal effective concentration [1]: 10 µM; minimal effective concentration (interferon (α)): 0.01 µM |
| COCCc1nc2c(N)nc3ccccc3c2n1CCCCN1CCCS1(=O)=O [Example 266, 1-[4-(1,1-dioxidoisothiazolidin-2-yl)butyl]-2-(2-methoxyethyl)-1H-imidazo[4,5-c]quinolin-4-amine] | 156.4 to 157.7 °C |  |

Second part, led by results:

| melting point | SMILES | other results |
| --- | --- | --- |
| 110.2 °C (dec.) | CCCCc1nc2c(N)nc3ccccc3c2n1CCCCNS(=O)(=O)c1cccc(N)c1 (as salt: hydrochloride) |  |
| 176 to 178.2 °C | CCCCc1nc2c(N)nc3ccccc3c2n1CCCCNS(=O)(=O)c1cccc([N+](=O)[O-])c1 (as salt: hydrochloride) [Example 7, N^1-[4-(4-Amino-2-butyl-1H-imidazo[4,5-c]quinolin-1-yl)butyl]-3-nitro-1-benzenesulfonamide Hydrochloride] |  |
| 96 °C (dec.) | CCCCc1nc2c(N)nc3ccccc3c2n1CCCCNS(=O)(=O)c1ccc([N+](=O)[O-])cc1 (as salt: hydrochloride) [Example 9, N^1-[4-(4-Amino-2-butyl-1H-imidazo[4,5-c]quinolin-1-yl)butyl]-4-nitro-1-benzenesulfonamide Hydrochloride] |  |
| 203.1 to 205 °C | CCCCc1nc2c(N)nc3ccccc3c2n1CCCCNS(=O)(=O)c1ccc(N)cc1 (as salt: hydrochloride) [Example 10, N^1-[4-(4-Amino-2-butyl-1H-imidazo[4,5-c]quinolin-1-yl)butyl]-4-amino-1-benzenesulfonamide Hydrochloride] |  |
| 137.5 to 141.5 °C | CCCCc1nc2c(N)nc3ccccc3c2n1CCCCNS(=O)(=O)c1cccs1 [Example 3, N^2-[4-(4-Amino-2-butyl-1H-imidazo[4,5-c]quinolin-1-yl)butyl]-2-thiophenesulfonamide] |  |
| 197 to 199.5 °C | CCCCc1nc2c(N)nc3ccccc3c2n1CCCCNS(=O)(=O)Cc1ccccc1 [Example 4, N-[4-(4-Amino-2-butyl-1H-imidazo[4,5-c]quinolin-1-yl)butyl]phenylmethanesulfonamide] |  |
| 75.5 to 79 °C | CCCCc1nc2c(N)nc3ccccc3c2n1CCCCNS(=O)(=O)c1ccccc1 [Example 5, N^1-[4-(4-Amino-2-butyl-1H-imidazo[4,5-c]quinolin-1-yl)butyl]-1-benzenesulfonamide] |  |
| 78.1 to 79.5 °C | COc1ccc(Cc2nc3c(N)nc4ccccc4c3n2CCCCNS(C)(=O)=O)cc1 [Example 12, N-[4-(4-Amino-2-(4-methoxybenzyl)-1H-imidazo[4,5-c]quinolin-1-yl]butyl]methanesulfonamide] |  |
| 234 to 235 °C | CS(=O)(=O)NCCCCn1c(-c2ccccc2)nc2c(N)nc3ccccc3c21 [Example 16, N-[4-(4-Amino-2-phenyl-1H-imidazo[4,5-c]quinolin-1-yl)butyl]methanesulfonamide] |  |
| 210.7 to 211.6 °C | CCS(=O)(=O)NCCCCn1c(C)nc2c(N)nc3ccccc3c21 [Example 269, N-[4-(4-amino-2-methyl-1H-imidazo[4,5-c]quinolin-1-yl)butyl]ethanesulfonamide] |  |
| 199.7 to 200.7 °C | CS(=O)(=O)NCCCCn1c(CC2CC2)nc2c(N)nc3ccccc3c21 [Example 270, N-{4-[4-amino-2-(cyclopropylmethyl)-1H-imidazo[4,5-c]quinolin-1-yl]butyl}methanesulfonamide] |  |
